{"source": "paper PMC6829050", "about": "(European journal of medicinal chemistry, 2019)", "key": {"ChTS over the hTS enzyme": {"system": "ChTS over the hTS enzyme", "settings": "inhibition activity; cited from earlier work"}, "ChTS": {"molecular_target": "T1, ChTS (Cryptosporidium parvum, UniProt Q27552)", "T1 sequence (Q27552 1-521)": "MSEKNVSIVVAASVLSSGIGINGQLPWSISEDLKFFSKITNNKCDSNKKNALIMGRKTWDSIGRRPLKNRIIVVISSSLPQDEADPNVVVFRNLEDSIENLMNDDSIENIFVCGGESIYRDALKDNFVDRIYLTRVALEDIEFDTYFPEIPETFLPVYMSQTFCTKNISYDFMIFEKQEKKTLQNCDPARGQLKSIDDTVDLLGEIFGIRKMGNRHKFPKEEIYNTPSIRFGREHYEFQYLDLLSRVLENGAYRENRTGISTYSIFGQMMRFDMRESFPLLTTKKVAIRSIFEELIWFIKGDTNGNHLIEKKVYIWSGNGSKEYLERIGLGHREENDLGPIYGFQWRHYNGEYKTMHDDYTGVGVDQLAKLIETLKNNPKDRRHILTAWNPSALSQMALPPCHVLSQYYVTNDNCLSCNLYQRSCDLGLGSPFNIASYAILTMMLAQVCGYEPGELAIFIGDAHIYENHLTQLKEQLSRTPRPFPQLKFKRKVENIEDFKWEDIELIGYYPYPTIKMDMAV", "assay_type": "biochemical", "settings": "for change in ChTS potency (in words): compared to compound 2"}, "[1]": {"settings": "ChTS IC50 compared to compound 2"}}, "data": [{"molecule": "2-amino-4-oxo-4,7-dihydro-pyrrolo[2,3-d]pyrimidin-methyl-phenyl-L-glutamic acid [Compound 1]", "values": [{"measurement": "selectivity for the ChTS over the hTS enzyme", "setting": "ChTS over the hTS enzyme", "result": 6, "unit": "fold"}]}, {"molecule": "Nc1nc2[nH]cc(Cc3ccc(C(=O)Nc4cccc(C(=O)O)c4)cc3)c2c(=O)[nH]1", "note": "[Compound 3, 3-(4-((2-amino-4-oxo-4,7-dihydro-3H-pyrrolo[2,3-d]pyrimidin-5-yl)methyl)benzamido)benzoic acid]", "values": [{"measurement": "loss (decrease) of potency", "setting": "ChTS; [1]", "result": "~ 5 fold"}]}, {"molecule": "Nc1nc2[nH]cc(Cc3ccc(C(=O)Nc4ccc(C(=O)O)cc4)cc3)c2c(=O)[nH]1", "note": "[Compound 4, 4-(4-((2-amino-4-oxo-4,7-dihydro-3H-pyrrolo[2,3-d]pyrimidin-5-yl)methyl)benzamido)benzoic acid]", "values": [{"measurement": "loss (decrease) of potency", "setting": "ChTS; [1]", "result": "~ 5 fold"}]}, {"molecule": "Nc1nc2[nH]cc(Cc3ccc(C(=O)Nc4ccccc4CC(=O)O)cc3)c2c(=O)[nH]1", "note": "[Compound 5, 2-(2-(4-((2-amino-4-oxo-4,7-dihydro-3H-pyrrolo[2,3-d]pyrimidin-5-yl)methyl)benzamido)phenyl) acetic acid]", "values": [{"measurement": "change in ChTS potency (in words)", "setting": "ChTS", "result": "small increase in potency"}]}, {"molecule": "Nc1nc2[nH]cc(Cc3ccc(C(=O)Nc4ccccc4CCC(=O)O)cc3)c2c(=O)[nH]1", "note": "[Compound 6, 3-(2-(4-((2-amino-4-oxo-4,7-dihydro-3H-pyrrolo[2,3-d]pyrimidin-5-yl)methyl)benzamido)phenyl) propanoic acid]", "values": [{"measurement": "loss (decrease) of potency", "setting": "ChTS; [1]", "result": "~ 6 fold"}]}, {"molecule": "CN(C(=O)c1ccc(Cc2c[nH]c3nc(N)[nH]c(=O)c23)cc1)c1ccccc1C(=O)O", "note": "[Compound 9, 2-(4-((2-amino-4-oxo-4,7-dihydro-3H-pyrrolo[2,3-d]pyrimidin-5-yl)methyl)-N-methylbenzamido) benzoic acid]", "values": [{"measurement": "loss (decrease) of potency", "setting": "ChTS; [1]", "result": "~ 11 fold"}]}, {"molecule": "Nc1nc2[nH]cc(Cc3ccc(/C=C/c4ccccc4C(=O)O)cc3)c2c(=O)[nH]1", "note": "[Compound 10, (E)-2-(4-((2-amino-4-oxo-4,7-dihydro-3H-pyrrolo[2,3-d]pyrimidin-5-yl)methyl)styryl)benzoic acid]", "values": [{"measurement": "loss (decrease) of potency", "setting": "ChTS; [1]", "result": "greater than 5 fold"}]}, {"molecule": "Nc1nc2[nH]cc(Cc3ccc(C(=O)NCc4ccccc4C(=O)O)cc3)c2c(=O)[nH]1", "note": "[Compound 11, 2-((4-((2-amino-4-oxo-4,7-dihydro-3H-pyrrolo[2,3-d]pyrimidin-5-yl)methyl)benzamido)methyl) benzoic acid]", "values": [{"measurement": "loss (decrease) of potency", "setting": "ChTS; [1]", "result": 6, "unit": "fold"}]}, {"molecule": "Nc1nc2[nH]cc(Cc3ccc(C(=O)N4CCCCC4C(=O)O)cc3)c2c(=O)[nH]1", "note": "(stereo not shown) [Compound 12, 1-(4-((2-amino-4-oxo-4,7-dihydro-3H-pyrrolo[2,3-d]pyrimidin-5-yl)methyl)benzoyl) piperidine-2-carboxylic acid]", "values": [{"measurement": "loss (decrease) of potency", "setting": "ChTS; [1]", "result": "greater than 25 fold"}]}, {"molecule": "Nc1nc2[nH]cc(Cc3ccc(C(=O)NC4CCCCC4C(=O)O)cc3)c2c(=O)[nH]1", "note": "(stereo not shown) [Compound 13, 2-(4-((2-amino-4-oxo-4,7-dihydro-3H-pyrrolo[2,3-d]pyrimidin-5-yl)methyl)benzamido)cyclohexan-1-carboxylic acid]", "values": [{"measurement": "loss (decrease) of potency", "setting": "ChTS; [1]", "result": 3, "unit": "fold"}]}, {"molecule": "Nc1nc2[nH]cc(Cc3ccc(C(=O)Nc4cc(Cl)ccc4C(=O)O)cc3)c2c(=O)[nH]1", "note": "[Compound 14, 2-(4-((2-amino-4-oxo-4,7-dihydro-3H-pyrrolo[2,3-d]pyrimidin-5-yl)methyl)benzamido)-4-chloro benzoic acid]", "values": [{"measurement": "change in ChTS potency (in words)", "setting": "ChTS", "result": "small loss of potency"}]}, {"molecule": "COc1ccc(C(=O)O)c(NC(=O)c2ccc(Cc3c[nH]c4nc(N)[nH]c(=O)c34)cc2)c1", "note": "[Compound 16, 2-(4-((2-amino-4-oxo-4,7-dihydro-3H-pyrrolo[2,3-d]pyrimidin-5-yl)methyl)benzamido)-4-methoxy benzoic acid]", "values": [{"measurement": "loss (decrease) of potency", "setting": "ChTS; [1]", "result": "~ 2.5 fold"}]}, {"molecule": "N#Cc1ccc(C(=O)O)c(NC(=O)c2ccc(Cc3c[nH]c4nc(N)[nH]c(=O)c34)cc2)c1", "note": "[Compound 17, 2-(4-((2-amino-4-oxo-4,7-dihydro-3H-pyrrolo[2,3-d]pyrimidin-5-yl)methyl)benzamido)-4-cyanobenzoic acid]", "values": [{"measurement": "increase (enhancement) in potency", "setting": "ChTS; [1]", "result": 2, "unit": "fold"}]}, {"molecule": "Nc1nc2[nH]cc(Cc3ccc(C(=O)Nc4cc(CO)ccc4C(=O)O)cc3)c2c(=O)[nH]1", "note": "[Compound 18, 2-(4-((2-amino-4-oxo-4,7-dihydro-3H-pyrrolo[2,3-d]pyrimidin-5-yl)methyl)benzamido)-4-(hydroxymethyl)benzoic acid]", "values": [{"measurement": "loss (decrease) of potency", "setting": "ChTS; [1]", "result": "~ 9 fold"}]}, {"molecule": "COCc1ccc(C(=O)O)c(NC(=O)c2ccc(Cc3c[nH]c4nc(N)[nH]c(=O)c34)cc2)c1", "note": "[Compound 19, 2-(4-((2-amino-4-oxo-4,7-dihydro-3H-pyrrolo[2,3-d]pyrimidin-5-yl)methyl)benzamido)-4-(methoxymethyl)benzoic acid]", "values": [{"measurement": "loss (decrease) of potency", "setting": "ChTS; [1]", "result": "~ 3.5 fold"}]}, {"molecule": "COCc1cccc(C(=O)O)c1NC(=O)c1ccc(Cc2c[nH]c3nc(N)[nH]c(=O)c23)cc1", "note": "[Compound 21, 2-(4-((2-amino-4-oxo-4,7-dihydro-3H-pyrrolo[2,3-d]pyrimidin-5-yl)methyl)benzamido)-3-(methoxymethyl)benzoic acid]", "values": [{"measurement": "loss (decrease) of potency", "setting": "ChTS; [1]", "result": "greater than 5 fold"}]}, {"molecule": "COc1ccc(NC(=O)c2ccc(Cc3c[nH]c4nc(N)[nH]c(=O)c34)cc2)c(C(=O)O)c1", "note": "[Compound 22, 2-(4-((2-amino-4-oxo-4,7-dihydro-3H-pyrrolo[2,3-d]pyrimidin-5-yl)methyl)benzamido)-5-methoxybenzoic acid]", "values": [{"measurement": "loss (decrease) of potency", "setting": "ChTS; [1]", "result": "greater than 5 fold"}]}, {"molecule": "COCCOc1cc(OC)cc(-c2ccc(Cc3c[nH]c4nc(N)[nH]c(=O)c34)cc2)c1", "note": "[Compound 26, 2-amino-5-((3’-methoxy-5’-(2-methoxyethoxy)-[1,1’-biphenyl]-4-yl)methyl)-3,7-dihydro-4H-pyrrolo [2,3-d]pyrimidin-4-one]", "values": [{"measurement": "loss (decrease) of potency", "setting": "ChTS; [1]", "result": "~ 5 fold"}]}, {"molecule": "COc1cc(C(=O)O)cc(-c2ccc(Cc3c[nH]c4nc(N)[nH]c(=O)c34)cc2)c1", "note": "[Compound 27, 4’-((2-amino-4-oxo-4,7-dihydro-3H-pyrrolo[2,3-d]pyrimidin-5-yl)methyl)-5-methoxy-[1,1’-biphenyl]-3-carboxylic acid]", "values": [{"measurement": "loss (decrease) of potency", "setting": "ChTS; [1]", "result": "greater than 25 fold"}]}]}
